The results in this text go back to ChEMBL document CHEMBL1145307, “Design and synthesis of tetracyclic nonpeptidic biaryl nitrile inhibitors of cathepsin K” (Bioorg Med Chem Lett, 2006).

One data set deals with Cathepsin S (Homo sapiens, UniProt P25774). Description: Inhibition of human cathepsin S.
A short description of data set [1]: Volume of distribution in rat at 0.5 mg/kg, iv. Particulars: in vivo, read-out: Vss. Also noted: dose 0.5 mg/kg, route intravenous. The data set is classed as ADME, organism-based.
Another data set has as its system Osteoclast. The data set is described as follows: Effect on degradation of bovine bone by rabbit osteoclast. The class given is functional, cell-based. The note with it: Oryctolagus cuniculus.
Another data set deals with T1, Cathepsin K (Homo sapiens, UniProt P43235).
T1 sequence (P43235 whole entry): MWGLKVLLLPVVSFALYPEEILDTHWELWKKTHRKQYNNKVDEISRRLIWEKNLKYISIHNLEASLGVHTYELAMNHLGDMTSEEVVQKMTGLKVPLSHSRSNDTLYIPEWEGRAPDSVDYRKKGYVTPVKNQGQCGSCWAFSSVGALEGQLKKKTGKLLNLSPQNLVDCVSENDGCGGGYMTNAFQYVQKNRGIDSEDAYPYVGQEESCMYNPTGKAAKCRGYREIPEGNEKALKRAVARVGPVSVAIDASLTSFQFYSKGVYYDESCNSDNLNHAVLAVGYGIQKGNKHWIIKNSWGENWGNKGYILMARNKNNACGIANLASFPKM
Description: Inhibition of human cathepsin K.

The nature of data set [2]: Clearance in rat at 0.5 mg/kg, iv. The class given is ADME, organism-based. Also noted: dose 0.5 mg/kg, route intravenous. The note with it: in vivo.
Another data set addresses Procathepsin L (Homo sapiens, UniProt P07711). The data set is described as follows: Inhibition of human cathepsin L.
A short description of data set [3]: Mean residence time in rat at 0.5 mg/kg, iv. The class given is ADME, organism-based. Also noted: dose 0.5 mg/kg, route intravenous. Particulars: in vivo.
Data set [4] deals with Cathepsin (S and K) (Homo sapiens) (UniProt P25774+P43235). Description: Selectivity for cathepsin S over cathepsin K. The data set is classed as protein assay.
A further data set addresses Cathepsin B (Homo sapiens, UniProt P07858). The data set is described as follows: Inhibition of human cathepsin B.
Data set [5] deals with Cathepsin (L and K) (Homo sapiens) (UniProt P43235+P07711). The data set is described as follows: Selectivity for cathepsin L over cathepsin K. The class given is protein assay.
The target in data set [6] is Cathepsin (B and K) (Homo sapiens) (UniProt P43235+P07858). The data set is described as follows: Selectivity for cathepsin B over cathepsin K. The class given is protein assay.
Data set [7] concerns Rattus norvegicus. The data set is described as follows: Cmax in rat at 10 mg/kg, po. Particulars: in vivo. The class given is ADME, organism-based. Also noted: dose 10 mg/kg, route oral.
The test system of data set [8] is Rattus norvegicus. Description: AUC in rat at 10 mg/kg, po. The data set is classed as ADME, organism-based, Plasma. Also noted: dose 10 mg/kg, route oral. Particulars: in vivo.
Data set [9] relates to Rattus norvegicus. The data set is described as follows: Half life in rat at 10 mg/kg, po. Particulars: in vivo. Also noted: dose 10 mg/kg, route oral. The class given is ADME, organism-based.
Data set [10] can be described thus: Oral bioavailability in rat at 10 mg/kg, po. The class given is ADME, organism-based. Particulars: in vivo.
In data set [11] the test system is Rattus norvegicus. Description: Tmax in rat at 10 mg/kg, po. The class given is ADME, organism-based. Also noted: dose 10 mg/kg, route oral. The note with it: in vivo.

Chain of Procathepsin L (P07711 whole entry): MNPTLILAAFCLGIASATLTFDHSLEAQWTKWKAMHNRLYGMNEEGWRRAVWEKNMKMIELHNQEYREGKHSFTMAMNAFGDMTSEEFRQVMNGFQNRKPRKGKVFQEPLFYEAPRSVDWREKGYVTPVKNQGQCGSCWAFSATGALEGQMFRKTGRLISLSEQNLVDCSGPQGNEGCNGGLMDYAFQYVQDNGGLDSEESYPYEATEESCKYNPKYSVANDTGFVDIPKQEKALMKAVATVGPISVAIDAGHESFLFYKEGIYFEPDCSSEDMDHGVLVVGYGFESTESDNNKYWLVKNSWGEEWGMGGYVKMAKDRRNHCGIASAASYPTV
Chain of Cathepsin S (P25774 whole entry): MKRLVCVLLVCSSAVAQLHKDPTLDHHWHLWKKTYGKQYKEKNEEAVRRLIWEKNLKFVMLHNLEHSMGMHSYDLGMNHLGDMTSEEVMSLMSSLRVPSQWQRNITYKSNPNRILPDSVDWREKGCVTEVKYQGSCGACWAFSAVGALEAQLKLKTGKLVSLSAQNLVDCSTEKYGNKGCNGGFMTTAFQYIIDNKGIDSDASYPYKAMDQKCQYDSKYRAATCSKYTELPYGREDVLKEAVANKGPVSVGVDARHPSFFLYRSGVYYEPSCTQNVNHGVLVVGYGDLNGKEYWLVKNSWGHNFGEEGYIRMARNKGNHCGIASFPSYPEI

As to `CC(C)C[C@@H](C(=O)NCC#N)c1cccc(-c2cccc(-c3csc(N4CCN(C(C)(C)C)CC4)n3)c2)c1`, the Ki at Cathepsin S came out at 5600 nM; on Cathepsin K, 1.3 nM; on Procathepsin L, 360 nM; on Cathepsin B, 37000 nM. The Vd in [1] was found to be 6.6 L/kg. Further, in the data set with Osteoclast, half-maximal inhibition (IC50) required 28 nM. The molecule further registered a clearance in data set [2] of 60 mL/min/kg. Besides, the MRT in data set [3] was 1.82 h. Also, the values for the Selectivity ratio in [4], in data set [5] and in [6] were 4310, 276 and 28500, respectively.
As for `CC(C)CC(C(=O)NCC#N)c1cccc(-c2cccc(-c3csc(N4CCN(C)CC4)n3)c2)c1` (racemic), the Ki came to 1800 nM at Cathepsin S, 1.3 nM at Cathepsin K, 390 nM at Procathepsin L and 22000 nM on Cathepsin B. In addition, the Vd in data set [1] turned out to be 1.7 L/kg. The molecule further displayed an IC50 with Osteoclast of 59 nM. The molecule further displayed a clearance in [2] of 32 mL/min/kg. The molecule further gave an MRT in data set [3] of 0.9 h. Moreover, the Selectivity ratio stood at 1380 in data set [4], 300 in data set [5] and 16900 in [6].
Regarding `CC(C)CC(C(=O)NCC#N)c1cccc(-c2ccc(-c3csc(N4CCNCC4)n3)cc2)c1` (racemic), the Ki on Cathepsin S is 9500 nM; on Cathepsin K, 3.5 nM; on Procathepsin L, 2500 nM; at Cathepsin B, 12000 nM. For the same molecule, the Vd in data set [1] came out at 12 L/kg. The molecule further gave an IC50 in the data set on Osteoclast of 12 nM. Besides, the clearance in [2] was determined as 114 mL/min/kg. Further, in data set [3], the mean residence time (MRT) was 1.77 h. Moreover, the Selectivity ratio in data set [4] is 2710; in data set [5], 714; in data set [6] it was 3430.
For `CC(C)C[C@@H](C(=O)NCC#N)c1cccc(-c2cccc(-c3csc(CN4CCNCC4)n3)c2)c1`, the Ki at Cathepsin S was determined as 7400 nM; on Cathepsin K, 4.8 nM; at Procathepsin L, 680 nM; on Cathepsin B, 51000 nM. The Vd in data set [1] is 9.1 L/kg. Further, in the data set with Osteoclast, the IC50 was 43 nM. The clearance in data set [2] worked out at 65 mL/min/kg. Also, the MRT in [3] is 2.33 h. The values for the Selectivity ratio in data set [4], in data set [5] and in data set [6] were 1540, 141 and 10600, respectively.
As for `CC(C)C[C@@H](C(=O)NCC#N)c1cccc(-c2ccc(N3CCNCC3)cc2)c1`, the Ki on Cathepsin S came out at 1690 nM; at Cathepsin K it was 8 nM; at Procathepsin L, 4640 nM; at Cathepsin B it was 3840 nM. Moreover, the Vd in data set [1] amounted to 14.8 L/kg. Besides, the IC50 in the data set with Osteoclast was determined as 95 nM. In data set [2], this molecule showed a clearance of 98 mL/min/kg. This molecule also showed an MRT in data set [3] of 2.58 h. The results for the Selectivity ratio in [4], in data set [5] and in data set [6] were 212, 580 and 481, respectively.
`CC(C)CC(C(=O)NCC#N)c1cccc(-c2cccc(-c3csc(N4CCNCC4)n3)c2)c1` (racemic) showed a Cmax with Rattus norvegicus [7] of 1100 nM. Besides, the Ki was determined as 5600 nM on Cathepsin S, 0.8 nM at Cathepsin K, 190 nM at Procathepsin L and 18000 nM at Cathepsin B. Moreover, the Vd in [1] came out at 4.3 L/kg. In the data set with Osteoclast, this molecule displayed an IC50 of 349 nM. In data set [2], this molecule had a clearance of 25 mL/min/kg. In [3], this molecule gave an MRT of 2.93 h. The values for the Selectivity ratio in [4], in data set [5] and in [6] were 7000, 237 and 22500, respectively. The molecule further displayed an AUC in the data set with Rattus norvegicus [8] of 560 µM·min. Besides, in the data set on Rattus norvegicus [9], the T1/2 was determined as 3.9 h. The bioavailability in data set [10] came to 85%. Further, the Tmax in the data set with Rattus norvegicus [11] was found to be 3.33 h.
As for `CC(C)C[C@@H](C(=O)NCC#N)c1cccc(-c2cccc(-c3csc(N4CCC(N(C)C)C4)n3)c2)c1` (some centres undefined), the Ki was 3600 nM at Cathepsin S, 3 nM on Cathepsin K, 540 nM at Procathepsin L and 51000 nM at Cathepsin B. In the data set on Osteoclast, this molecule gave an IC50 of 172 nM. The values for the Selectivity ratio in [4], in [5] and in data set [6] were 1200, 180 and 17000, respectively.
